# According to patent US8546416B2, “3-spirocyclic piperidine derivatives as ghrelin receptor agonists” (Novartis AG, priority 2011, dated 2013):
# Key:
# [1] = biological target: T1, human recombinant ghrelin receptor (GHS-R1a) (Homo sapiens, UniProt Q92847); assay: hGHS-R1a cAMP assay (HTRF cAMP dynamic 2 kit, CHO-hGHS-R1a cells); format: cell-based; conditions: 60 min incubation, dose response up to 30 μM
# T1 construct: host or cells: CHO-K1
# Experimental: (§1) Chinese hamster ovary (CHO-K1) cells expressing human recombinant ghrelin receptor (GHS-R1a) were purchased from Euroscreen (ES-410-C) and propagated in UltraCHO medium containing glutamine and supplemented with 1% heat inactivated foetal calf serum (FCS), 100 U/ml penicillin, 100 mg/l streptomycin and 0.8 g/l geneticin. Cells were sub-cultured twice a week with a 1:10 dilution. For passaging, cells were washed with 1×DPBS without calcium and magnesium, trypsinised for 10 min with 0.05% Trypsin/EDTA and resuspended in cell culture medium.
# The Homogeneous Time-Resolved Fluorescence (HTRF) cAMP dynamic 2 kit (Cisbio International, France) was used as follows. CHO-hGHS-R1a or CHO-rGHS-R1a cells were seeded in a volume of 25 μl culture media at 10,000 cells/well (400,000 cells/ml) in Greiner white 384-well high volume plates and incubated overnight (18-24 h) at 37° C./5% CO2. Then, media was removed and 6 μl assay buffer [HBSS, 10 mM Hepes, 0.2% (w/v) BSA, 1.7 mM IBMX, (pH7.4)] were added to the wells. To generate a dose response up to 30 μM, 10 mM compound stocks in 100% (v/v) DMSO were firstly diluted in 50% (v/v) DMSO followed by a further dilution into assay buffer. Then, 4 μl of 2.5× compound (dose response as 9 point log serial dilution in assay buffer from 30 μM as maximum concentration) were added to each well achieving a final DMSO assay concentration of 0.8% (v/v). 0.1 μM forskolin was added as positive control. After 30 min (rGHS-R1a cell line) or 60 min (hGHS-R1a cell line) incubation at 37° C./5% CO2, 5 μl of cAMP-d2 and 5 μl of anti-cAMP antibody-cryptate, (both made in lysis buffer), were added to the plate followed by 1 h incubation at RT. During this time, cAMP produced by the cells competed with cAMP-d2 for the anti-cAMP antibody-cryptate molecule. Then, the plate was read on the Pherastar instrument (BMG, Germany) at two different emission wavelengths (620 and 650 nm). Increasing levels of endogenous cAMP produced by cells could be followed by a decrease of FRET fluorescent signal and viceversa. Values represented by a change in arbitrary fluorescence ratios (665/620) were converted into cAMP concentrations by using a standard curve, the reagents for which were supplied with the kit. EC50 values of agonists were calculated using the nonlinear logistic function of the Prism 5 software (GraphPad, USA). Emax were expressed as relative values of the ghrelin response, which was defined as 100%.
# [2] = biological target: T1, human recombinant ghrelin receptor (GHS-R1a); assay: hGHS-R1a Ca assay (Fluo-4 calcium assay in CHO-K1 cells); format: cell-based; conditions: for EC50: CHO-K1 cells expressing human GHS-R1a, agonist dose response up to 30 μM
# Experimental: as §1
# Cells were diluted to achieve 1×10^6 cells/ml, seeded in 384-well black clear bottom CellBind plates at 25000 cells/well (25 ul) and incubated overnight at 37° C./5% CO2 Cells were expected to be 85-90% confluent on the day of assay (checked under the microscope) to ensure a high quality assay. Media was manually removed and 40 μl of loading solution containing probenecid and Fluo-4 no wash dye (a calcium indicator, Invitrogen F36206) were added to each well. After 30 min at 37° C. followed by another 30 min at RT, cpds were added to the wells. To generate a dose response up to 30 μM, 10 mM compound stocks in 100% (v/v) DMSO were firstly diluted in 50% (v/v) DMSO. Then, serial dilutions aimed at a full logarithmic dose responses (8 point) were performed in assay buffer [1×HBSS, 20 mM Hepes, 0.1% (w/v) BSA] to give 2.5% (v/v) DMSO and 5× final compound concentrations. The final assay DMSO concentration was 0.5% (v/v). After loading the cells with Fluo-4 containing solution, plates were read on a CellLux instrument (Perkin Elmer). A protocol set up to add 10 μl of 5× compound and to read the plate for 60 sec after adding the compound at 17th sec was used. Fluorescence excitation took place at 494 nm and emission at 516 nm. EC50 values of agonists were calculated by fitting the percent stimulation over background [(Max−Min)/Min] using the nonlinear logistic function of the Prism 5 software (GraphPad, USA).
# T1 sequence (Q92847 whole entry): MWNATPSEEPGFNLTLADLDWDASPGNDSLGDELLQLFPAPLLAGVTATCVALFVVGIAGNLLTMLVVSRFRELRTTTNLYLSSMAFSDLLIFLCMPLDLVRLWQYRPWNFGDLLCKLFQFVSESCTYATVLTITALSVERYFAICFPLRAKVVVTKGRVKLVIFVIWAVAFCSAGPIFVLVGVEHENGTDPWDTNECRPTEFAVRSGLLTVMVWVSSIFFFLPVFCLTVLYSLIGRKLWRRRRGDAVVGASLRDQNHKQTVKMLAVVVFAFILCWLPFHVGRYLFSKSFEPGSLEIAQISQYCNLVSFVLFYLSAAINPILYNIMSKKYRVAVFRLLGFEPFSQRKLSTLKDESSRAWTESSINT
EC50 [1],EC50 [2],"Emax ([2]; CHO-K1, relative to Emax induced by MK-0677 (defined as 100%))",Compound
0.385 µM,0.0017 µM,,"CN1N=C(c2ccccc2)C2(CCCN(C(=O)[C@@H](COCc3ccccc3)NC(=O)C(C)(C)N)C2)C1=O (mixture of isomers) [Example 1.47, 2-Amino-N-[(R)-1-benzyloxymethyl-2-(3-methyl-4-oxo-1-phenyl-2,3,7-triaza-spiro[4.5]dec-1-en-7-yl)-2-oxo-ethyl]-2-methyl-propionamide]"
1.34 µM,0.0023 µM,,"CN1C[C@H](c2ccccc2)[C@]2(CCCN(C(=O)[C@@H](COCc3ccccc3)NC(=O)C(C)(C)N)C2)C1=O (single isomer, unassigned) [Example 1.0(i)]"
0.043 µM,0.00016 µM,,"CN1C[C@@H](c2ccccc2)[C@@]2(CCCN(C(=O)[C@@H](COCc3ccccc3)NC(=O)C(C)(C)N)C2)C1=O (single isomer, unassigned) [Example 1.0(ii)]"
0.051 µM,0.0002 µM,,"CC(C)(N)C(=O)N[C@H](COCc1ccccc1)C(=O)N1CCCC2(C1)C(=O)NCC2c1ccccc1 (single isomer, unassigned) [Example 1.4]"
0.02 µM,0.0001 µM,,"CC(C)N1CC(c2ccccc2)C2(CCCN(C(=O)[C@@H](COCc3ccccc3)NC(=O)C(C)(C)N)C2)C1=O (single isomer, unassigned) [Example 1.5]"
0.039 µM,0.0005 µM,,"CN(C)C(=O)CN1CC(c2ccccc2)C2(CCCN(C(=O)[C@@H](COCc3ccccc3)NC(=O)C(C)(C)N)C2)C1=O (single isomer, unassigned) [Example 1.16]"
0.082 µM,0.001 µM,,"CNC(C)(C)C(=O)N[C@H](COCc1ccccc1)C(=O)N1CCCC2(C1)C(=O)N(C)CC2c1ccccc1 (single isomer, unassigned) [Example 1.17]"
2.28 µM,0.0016 µM,,"CN1CC(c2ccccc2)C2(CCCN(C(=O)[C@@H](COCc3ccccc3)NC(=O)C(C)(C)N)C2)C1=O (single isomer, unassigned) [Example 1.20]"
1.93 µM,0.0021 µM,,"CN1CC(c2ccccc2)C2(CCCN(C(=O)[C@@H](COCc3ccccc3)NC(=O)C(C)(C)N)C2)C1=O (single isomer, unassigned) [Example 1.21]"
0.043 µM,0.0003 µM,,"CCN1CC(c2ccccc2)C2(CCCN(C(=O)[C@@H](COCc3ccccc3)NC(=O)C(C)(C)N)C2)C1=O (single isomer, unassigned) [Example 1.25]"
0.034 µM,0.0007 µM,,"CC(C)(C)CN1CC(c2ccccc2)C2(CCCN(C(=O)[C@@H](COCc3ccccc3)NC(=O)C(C)(C)N)C2)C1=O (single isomer, unassigned) [Example 1.40]"
0.154 µM,0.0006 µM,93%,"CC(C)(N)C(=O)N[C@H](COCc1ccccc1)C(=O)N1CCCC2(C1)C(=O)NCC2c1ccccc1 (single isomer, unassigned) [Example 1.49]"
0.067 µM,0.0002 µM,,"Cc1ccccc1C1CN(C)C(=O)C12CCCN(C(=O)[C@@H](COCc1ccccc1)NC(=O)C(C)(C)N)C2 (single isomer, unassigned) [Example 1.51]"
0.036 µM,0.00011 µM,,"Cc1ccc(C2CN(C)C(=O)C23CCCN(C(=O)[C@@H](COCc2ccccc2)NC(=O)C(C)(C)N)C3)cc1 (single isomer, unassigned) [Example 1.53]"
0.517 µM,0.0029 µM,,"CN1CN(c2ccccc2)C2(CCCN(C(=O)[C@@H](COCc3ccccc3)NC(=O)C(C)(C)N)C2)C1=O (single isomer, unassigned) [Example 1.61]"
0.456 µM,0.0011 µM,,"CN1C(=O)C2(CCCN(C(=O)[C@@H](COCc3ccccc3)NC(=O)C(C)(C)N)C2)C1c1ccccc1 (single isomer, unassigned) [Example 2.0(ii)]"

# Continued, molecule first:
Compound,EC50 [1],EC50 [2],"Emax ([2]; CHO-K1, relative to Emax induced by MK-0677 (defined as 100%))"
"CN1CC(c2ccc(Cl)cc2)C2(CCCN(C(=O)[C@@H](COCc3ccccc3)NC(=O)C(C)(C)N)C2)C1=O (single isomer, unassigned) [Example 1.8]",0.162 µM,0.0003 µM,
"CN1CC(c2ccc(F)cc2)C2(CCCN(C(=O)[C@@H](Cc3c[nH]c4ccccc34)NC(=O)C(C)(C)N)C2)C1=O (single isomer, unassigned) [Example 1.11]",0.023 µM,0.0003 µM,
"CC(C)N1CC(c2ccc(F)cc2)C2(CCCN(C(=O)[C@@H](Cc3cn(C)c4ccccc34)NC(=O)C(C)(C)N)C2)C1=O (single isomer, unassigned) [Example 1.15]",0.128 µM,0.0016 µM,
"CN1CC(c2ccccc2)C2(CCCN(C(=O)[C@@H](CCc3ccccc3)NC(=O)C(C)(C)N)C2)C1=O (single isomer, unassigned) [Example 1.28]",0.141 µM,0.00065 µM,
"Cc1ccc(COC[C@@H](NC(=O)C(C)(C)N)C(=O)N2CCCC3(C2)C(=O)N(C)CC3c2ccc(F)cc2)cc1 (single isomer, unassigned) [Example 1.29]",0.049 µM,0.00035 µM,
"CN1CC(c2ccccc2)C2(CCCN(C(=O)[C@@H](CCCc3ccccc3)NC(=O)C(C)(C)N)C2)C1=O (single isomer, unassigned) [Example 1.32]",0.011 µM,0.0003 µM,
"C[C@H](OCc1ccccc1)[C@@H](NC(=O)C(C)(C)N)C(=O)N1CCCC2(C1)C(=O)N(C)CC2c1ccccc1 (single isomer, unassigned) [Example 1.34]",0.184 µM,0.0005 µM,
"Cc1ccc(COC[C@@H](NC(=O)C(C)(C)N)C(=O)N2CCCC3(C2)C(=O)N(C)CC3c2ccccc2)cc1 (single isomer, unassigned) [Example 1.55]",0.072 µM,0.00013 µM,
"CN1CC(c2ccc(F)cc2)C2(CCCN(C(=O)[C@@H](COCc3ccc(Cl)cc3)NC(=O)C(C)(C)N)C2)C1=O (single isomer, unassigned) [Example 1.57]",0.043 µM,0.00022 µM,
"CN1CC(c2ccccc2)C2(CCCN(C(=O)[C@@H](COCC3CCCCC3)NC(=O)C(C)(C)N)C2)C1=O (single isomer, unassigned) [Example 1.60]",0.047 µM,0.0003 µM,
"COc1ccc(COC[C@@H](NC(=O)C(C)(C)N)C(=O)N2CCCC3(C2)C(=O)N(C)CC3c2ccccc2)cc1 (single isomer, unassigned) [Example 6.0(ii), 2-Amino-N-[(R)-1-(4-methoxy-benzyloxymethyl)-2-((4S,5R)-2-methyl-1-oxo-4-phenyl-2,7-diaza-spiro[4.5]dec-7-yl)-2-oxo-ethyl]-2-methyl-propionamide or 2-Amino-N-[(R)-1-(4-methoxy-benzyloxymethyl)-2-(4R,5S)-2-methyl-1-oxo-4-phenyl-2,7-diaza-spiro[4.5]dec-7-yl)-2-oxo-ethyl]-2-methyl-propionamide]",0.109 µM,0.0005 µM,
